Reference: US9079964B2, “Immunoassay for cyclopropylindole based synthetic cannabinoids, metabolites and derivatives thereof” (Randox Laboratories Limited, priority 2013, dated 2015)

Columns and labels:
[1] = tested on: antiserum raised to Immunogen I; test: UR144/XLR11 Synthetic Cannabinoids (Spice) ELISA, antiserum raised to Immunogen I (third bleed); type: binding, sheep; conditions: for Concentration of compounds that elicit a negative response: Table 4, negative response at this concentration; for % Cross-Reactivity: Table 4, relative to UR144 N-Pentanoic Acid = 100
Procedure: (§1) The wells of an enhanced binding 96 well polystyrene microtiter plate were coated with IgG fraction of antiserum raised to Immunogen I or II, diluted in 10 mM Tris, pH 8.5 (125 μl/well). The appropriate antibody coating dilution was determined using standard ELISA checkerboard techniques. The plate was incubated overnight at 4° C., washed 4 times over 10 minutes with Tris buffered saline containing Tween20 (TBST) and tapped dry. Standard solutions (UR-144 N-pentanoic acid) were applied at 0, 0.625, 1.25, 2.5, 5, 10, 20 and 40 ng/ml and 50 μl of each was added to the appropriate wells. 75 μl of conjugate (appropriate hapten-HRP) diluted in Tris buffer (pH 7.2) containing EDTA, D-mannitol, sucrose, thimerosol and BSA, was added to each of the wells. The appropriate dilution of conjugate was also determined using standard ELISA checkerboard techniques. The plate was incubated at 25° C. for 1 hour. Excess unbound conjugate was removed by washing 6 times over a ten minute period with TBST. 125 μl of tetramethylbenzidine (TMB) substrate solution was added to each well of the plate that was then incubated for 20 minutes in the dark at room temperature. The reaction was terminated by addition of 125 μl of 0.2 M H2SO4 to each well. The absorbance was then measured at 450 nm using a microtiter plate reader. The data are inputted to a computer program called ‘KC Junior’ (Biotek). It gives a 4 parameter fit curve and allows the calculation of concentrations between the standard runs. This program is used to calculate the IC50 values by dividing the 0 ng/ml optical density (OD) value by 2 and obtaining the concentration value from the curve for this OD.
(§2) Cross-reactivity was calculated according to the following formula: % CR=IC50, UR-144 N-pentanoic acid/IC50, cross reactant×100 Where % CR is the percentage cross-reactivity, IC50, UR-144 N-pentanoic acid is the concentration of UR-144 N-pentanoic acid that causes 50% displacement of signal and IC50, cross reactant is the concentration of the cannabinoid/metabolite/selected molecule that causes 50% displacement of signal.
A further assay was carried out in accordance with the protocol described in Example 9 using Immunogen I.

[2] = tested on: antiserum raised to Immunogen I; test: Competitive ELISA with IgG fraction of antiserum raised to Immunogen I (second bleed) and hapten 1-HRP detecting agent; type: binding, sheep; conditions: Table 2; for % B/BO: cross-reactant at 100 ng/ml (single level); for IC50 / % Cross-reactivity (CR): cross-reactant tested at 100 ng/ml; for % Cross-reactivity (CR): relative to UR-144 N-pentanoic acid
Procedure: as §1, §2
In order to determine the specificity of the competitive ELISAs, standard solutions of a range of structurally related synthetic cannabinoids and their metabolites were prepared in TBST (Tris-Buffered Saline and Tween 20). Using the calibration curves generated and employing a single level of cross reactants, these were used to determine the cross-reactivity of the immunoassays with these substances.

Row | Structure (SMILES) | Concentration of compounds that elicit a negative response [1] [ng/mL] | % B/BO [2] [%] | IC50 [2] [µg/mL] | % Cross-reactivity (CR) [2] [%] | % Cross-Reactivity [1] [%]
1 | CCCCCn1c(O)c(C(=O)c2cccc3ccccc23)c2ccccc21 [2-OH JWH-018] | 100 | – | – | – | –
2 | CCCCn1c(O)c(C(=O)c2cccc3ccccc23)c2ccccc21 [2-OH JWH-073] | 100 | – | – | – | –
3 | CCCCCn1cc(C(=O)c2cccc3ccccc23)c2c(O)cccc21 [4-OH JWH-018] | 100 | – | – | – | –
4 | CCCCn1cc(C(=O)c2cccc3ccccc23)c2c(O)cccc21 [4-OH JWH-073] | 100 | – | – | – | –
5 | CCCCn1cc(C(=O)c2cccc3ccccc23)c2cc(O)ccc21 [5-OH JWH-073] | 100 | – | – | – | –
6 | CCCCn1cc(C(=O)c2cccc3ccccc23)c2ccc(O)cc21 [6-OH JWH-073] | 100 | – | – | – | –
7 | CCCCCn1cc(C(=O)c2cccc3ccccc23)c2cccc(O)c21 [7-OH JWH-018] | 100 | – | – | – | –
8 | CCCCn1cc(C(=O)c2cccc3ccccc23)c2cccc(O)c21 [7-OH JWH-073] | 100 | – | – | – | –
9 | O=C(c1cn(CCCCCO)c2ccccc12)C12CC3CC(CC(C3)C1)C2 [AB001 N-pentanol] | 100 | – | – | – | –
10 | O=C(O)CCCCn1cc(C(=O)C23CC4CC(CC(C4)C2)C3)c2ccccc21 [AB001N-pentanoic acid] | 100 | – | – | – | –
11 | O=C(NC12CC3CC(CC(C3)C1)C2)c1nn(CCCCCF)c2ccccc12 [AKB48 N (5-fluoropentyl) analog] | 100 | – | – | – | –
12 | O=C(c1ccccc1I)c1cn(CCCCCF)c2ccccc12 [AM694] | 100 | 79.00 | >0.1 | <3.0 | –
13 | CN1CCCCC1Cn1cc(C(=O)c2cccc3ccccc23)c2ccccc21 (stereo not shown) [AM1220] | – | 73.59 | >0.1 | <3.0 | –
14 | CN1CCCCC1Cn1cc(C(=O)c2cc([N+](=O)[O-])ccc2I)c2ccccc21 (stereo not shown) [AM1241] | 100 | 77.96 | >0.1 | <3.0 | –
15 | O=C(c1cccc2ccccc12)c1cn(CCCCCF)c2ccccc12 [AM2201] | 100 | 85.58 | >0.1 | <3.0 | –
16 | CCCn1c(C)c(C(=O)c2cccc3ccccc23)c2ccccc21 [JWH-015] | 100 | 89.77 | >0.1 | <3.0 | –
17 | CCCCCn1cc(C(=O)c2cccc3ccccc23)c2cc(O)ccc21 [JWH-018 (5 hydroxyindole)] | 100 | 94.61 | >0.1 | <3.0 | –
18 | CCCCCn1cc(C(=O)c2cccc3ccccc23)c2ccc(O)cc21 [JWH-018 (6 hydroxyindole)] | 100 | 93.92 | >0.1 | <3.0 | –
19 | O=C(c1cccc2ccccc12)c1cn(CCCCCO)c2ccccc12 [JWH-018 N (5 hydroxypentyl) metabolite, 1-(5-hydroxypentyl)-1H-indol-3-yl(naphthalen-1-yl)methanone] | 100 | 87.56 | >0.1 | <3.0 | –
20 | O=C(O)CCCCn1cc(C(=O)c2cccc3ccccc23)c2ccccc21 [JWH-018 N (carboxybutyl) metabolite] | – | 89.14 | >0.1 | <3.0 | –

Row | Structure (SMILES) | Concentration of compounds that elicit a negative response [1] [ng/mL] | % B/BO [2] [%] | IC50 [2] [µg/mL] | % Cross-reactivity (CR) [2] [%] | % Cross-Reactivity [1] [%]
21 | CC(O)CCCn1cc(C(=O)c2cccc3ccccc23)c2ccccc21 (stereo not shown) [JWH-018 N-(4-hydroxypentyl) metabolite, 1-(4-hydroxypentyl)-1H-indol-3-yl(napthalen-1-yl)-methanone] | 100 | – | – | – | –
22 | O=C(O)CCCCn1cc(-c2cccc3ccccc23)c2ccccc21 [JWH-018 N-pentanoic acid metabolite, 5-(3-(1-naphthyl)-1H-indol-1-yl)pentanoic acid] | 100 | – | – | – | –
23 | CCCCCn1cc(C(=O)NC23CC4CC(CC(C4)C2)C3)c2ccccc21 [JWH-018 adamantyl carboxamide] | 10 | – | – | – | –
24 | CCCCCn1cc(C(=O)C23CC4CC(CC(C4)C2)C3)c2ccccc21 [JWH-018 adamantyl] | 100 | – | – | – | –
25 | CCCCCn1cc(C(=O)c2cccc3ccccc23)c2ccccc21 [JWH-018] | – | 87.89 | >0.1 | <3.0 | –
26 | CCCCCCn1cc(C(=O)c2cccc3ccccc23)c2cc(O)ccc21 [JWH-019 5-hydroxyindole metabolite] | 100 | – | – | – | –
27 | CCCCCCn1cc(C(=O)c2cccc3ccccc23)c2ccccc21 [JWH-019] | – | 87.30 | >0.1 | <3.0 | –
28 | CC(O)CCn1cc(C(=O)c2cccc3ccccc23)c2ccccc21 (stereo not shown) [JWH-073 N-(3-hydroxybutyl) metabolite, 1-(3-hydroxybutyl)-1H-indol-3-yl(napthalen-1-yl)methanone] | 100 | – | – | – | –
29 | O=C(c1cccc2ccccc12)c1cn(CCCCO)c2ccccc12 [JWH-073 N-(4-hydroxybutyl) metabolite, 1-(4-hydroxybutyl)-1H-indol-3-yl(naphthalen-1-yl)methanone] | 100 | – | – | – | –
30 | O=C(O)CCCn1cc(-c2cccc3ccccc23)c2ccccc21 [JWH-073 N-butanoic acid metabolite, 4-(3-(1-naphthyl)-1H-indol-1-yl)butanoic acid] | 100 | – | – | – | –
31 | COc1ccc(C(=O)c2cn(CCCCCO)c3ccccc23)c2ccccc12 [JWH-081 N-(5-hydroxypentyl) metabolite] | 100 | – | – | – | –
32 | CCCCCn1cc(C(=O)c2ccc(CC)c3ccccc23)c2ccccc21 [JWH-210] | – | 95.89 | >0.1 | <3.0 | –
33 | COc1ccccc1CC(=O)c1cn(CCCCCC(=O)O)c2ccccc12 [JWH-250 N-(5-carboxypentyl) metabolite] | 100 | – | – | – | –
34 | COc1ccccc1CC(=O)c1cn(CCCCCO)c2ccccc12 [JWH-250 N-(5-hydroxypentyl) metabolite] | 100 | – | – | – | –
35 | O=C(c1cccc2ccccc12)c1c[nH]c2ccccc12 [N-desalkyl JWH-018, 3-(1-naphthoyl) indole] | 100 | – | – | – | –
36 | O=C(NC12CC3CC(CC(C3)C1)C2)c1cn(CCCCCF)c2ccccc12 [STS135] | 100 | – | – | – | –
37 | CC(O)CCCn1cc(C(=O)C2C(C)(C)C2(C)C)c2ccccc21 (stereo not shown) [UR144 N-(4-hydroxypentyl) metabolite] | – | – | – | – | 107
38 | C=C(C)C(C)(C)CC(=O)c1cn(CCCCCF)c2ccccc12 [XLR11 Degradant] | – | – | – | – | 3
39 | CC(O)CCCn1cc(C(=O)C2C(C)(C)C2(C)C)c2ccccc21 (stereo not shown) [XLR11 N-(4-hydroxypentyl) metabolite] | – | – | – | – | 2
